Reference: patent US7491827B2, “Aryl sulfonamides useful as inhibitors of chemokine receptor activity” (Millennium Pharmaceuticals, Inc., priority 2003, dated 2009)

Biological target: T1, cloned human CCR8 receptor stably expressed in L1.2 cells (Homo sapiens, UniProt P51685)
T1 construct: expressed in transfected cells
Experiment: whole cell binding screen: inhibition of biotinylated human I309 binding to CCR8 (FMAT 8100 HTS)
Settings: Ki of compounds to inhibit I-309 binding to CCR8, L1.2/hCCR8 cells, biotinylated human I-309, 10 point concentration response starting at 10 μM
Text: This whole cell binding screen evaluates the ability of compounds to inhibit biotinlyated human I309 binding to the cloned human CCR8 receptor stably expressed in L1.2 cells. Human CCR8 gene was amplified by PCR using PFU polymerase under standard conditions from human genomic DNA purchased from Stratagene. The PCR primers used were:
The 5′ and 3′ primers contained flanking enzyme sites (Bam Hi and Not 1,respectively), which were used to subclone the gene into pcDNA3.1. […] The CCR8 vector was then transfected into L1.2 cells (murine pre-B cells) by electroporation.
Compounds were screened using the FMAT™ 8100 HTS System (purchased from Applied Biosystems).
A suspension was prepared of L1.2/hCCR8 cells at 4.0×10^5 cells/mL in a binding buffer (Buffer consisting of Hanks Balanced Salt Solution (without phenol red), 10 mM HEPES, 0.1% Fatty Acid Free BSA, 0.02% Sodium Azide).
Dilution series of 10 mM stock concentrations of the test compounds were prepared in DMSO and further diluted into binding buffer defined above) to three times the final assay concentration.
10 point concentration response curve is constructed for each compound, starting at 10 μM (final assay concentration in Binding Buffer). […] The components were mixed in wells by covering the plate with aluminum foil and rotating for 0.5 hours. […] Average fluorescence reported for each concentration was normalized to percent inhibition based on negative (no inhibitor) and positive (100 nM excess unlabeled I309 (R and D Systems)) controls.

T1 sequence (P51685 whole entry): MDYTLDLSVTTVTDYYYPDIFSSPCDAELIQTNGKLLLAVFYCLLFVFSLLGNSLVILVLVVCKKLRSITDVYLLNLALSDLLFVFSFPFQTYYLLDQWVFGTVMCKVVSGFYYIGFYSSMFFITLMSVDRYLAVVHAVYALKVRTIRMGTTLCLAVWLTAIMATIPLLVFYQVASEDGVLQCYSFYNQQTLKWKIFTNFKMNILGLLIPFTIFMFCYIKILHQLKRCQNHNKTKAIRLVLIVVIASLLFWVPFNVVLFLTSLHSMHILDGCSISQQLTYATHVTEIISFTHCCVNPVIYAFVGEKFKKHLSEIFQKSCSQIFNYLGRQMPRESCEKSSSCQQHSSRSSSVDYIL

SMILES | Ki
COc1ccc(NS(=O)(=O)c2ccc(N(C)C(=O)c3ccccc3)c3ccccc23)cc1 [Compound B-33, N-[4-(4-Methoxy-phenylsulfamoyl)-naphthalen-1-yl]-N-methyl-benzamide] | < 30000 nM
Cc1ccccc1C(=O)Nc1ccc(S(=O)(=O)NC2CCN(C(=O)CN)CC2)c2ccccc12 [Compound C-122, N-{4-[1-(2-Amino-acetyl)-piperidin-4-ylsulfamoyl]-naphthalen-1-yl}-2-methyl-benzamide] | < 500 nM

Same assay, conditions: L1.2/hCCR8 cells, biotinylated human I-309, 10 point concentration response starting at 10 μM; read-out: Ki of compounds to inhibit I-309 binding to CCR8

SMILES | Ki
CCOC(=O)N1CCC(NS(=O)(=O)c2ccc(NC(=O)C3CCCCC3)c3ccccc23)CC1 [Compound B-12, 4-[4-(Cyclohexanecarbonyl-amino)-naphthalene-1-sulfonylamino]-piperidine-1-carboxylic acid ethyl ester] | < 500 nM
CC[C@H](N)C(=O)N1CCC(NS(=O)(=O)c2ccc(NC(=O)c3ccccc3C)c3ccccc23)CC1 [Compound C-126, (S)-N-{4-[1-(2-Amino-butyryl)-piperidin-4-ylsulfamoyl]-naphthalen-1-yl}-2-methyl-benzamide] | < 500 nM
O=C(Nc1ccc(S(=O)(=O)NC2CCN(C(=O)N3CCOCC3)CC2)c2ccccc12)c1ccccc1 [Compound C-4, N-{4-[1-(Morpholine-4-carbonyl)-piperidin-4-ylsulfamoyl]-naphthalen-1-yl}-benzamide] | < 500 nM
Cc1ccccc1C(=O)Nc1ccc(S(=O)(=O)NC2CCN(C(=O)N(C)C)C2)c2c1CCCC2 (racemic) [Compound E-32, (±)-3-[4-(2-Methyl-benzoylamino)-5,6,7,8-tetrahydro-naphthalene-1-sulfonylamino]-pyrrolidine-1-carboxylic acid dimethylamide] | < 500 nM
CCNC(=O)N1CCC(NS(=O)(=O)c2ccc(NC(=O)c3ccccc3C)c3ccccc23)C1 (racemic) [Compound C-52, (±)-3-[4-(2-Methyl-benzoylamino)-naphthalene-1-sulfonylamino]-pyrrolidine-1-carboxylic acid ethylamide] | < 500 nM
COc1ccc(NS(=O)(=O)c2ccc(NC(=O)c3ccncc3)c3ccccc23)cc1 [Compound B-8, N-[4-(4-Methoxy-phenylsulfamoyl)-naphthalen-1-yl]-isonicotinamide] | < 1000 nM
CCNC(=O)N1CCC(C)(NS(=O)(=O)c2ccc(NC(=O)c3ccccc3C)c3ccccc23)CC1 [Compound C-24, 4-Methyl-4-[4-(2-methyl-benzoylamino)-naphthalene-1-sulfonylamino]-piperidine-1-carboxylic acid ethylamide] | < 500 nM
CCOC(=O)N1CCC(NS(=O)(=O)c2ccc(N3C(=O)c4ccccc4C3=O)c3ccccc23)CC1 [Compound A-18, 4-[4-(1,3-Dioxo-1,3-dihydro-isoindol-2-yl)-naphthalene-1-sulfonylamino]-piperidine-1-carboxylic acid ethyl ester] | < 500 nM
CC(C)(C)OC(=O)N1CCC(NS(=O)(=O)c2ccc(NC(=O)c3ccccc3)c3ccccc23)C1 (centres unmarked) [Compound A-37, 3-(4-Benzoylamino-naphthalene-1-sulfonylamino)-pyrrolidine-1-carboxylic acid tert-butyl ester] | < 500 nM
CC(C)(C)OC(=O)N1CCC(NS(=O)(=O)c2ccc(NC(=O)c3cccnc3)c3ccccc23)CC1 [Compound B-20, 4-{4-[(Pyridine-3-carbonyl)-amino]-naphthalene-1-sulfonylamino}-piperidine-1-carboxylic acid tert-butyl ester] | < 1000 nM
Cc1ccccc1C(=O)Nc1ccc(S(=O)(=O)NC2CCN(S(=O)(=O)c3ccccc3)CC2)c2ccccc12 [Compound C-58, N-[4-(1-Benzenesulfonyl-piperidin-4-ylsulfamoyl)-naphthalen-1-yl]-2-methyl-benzamide] | < 500 nM
CCOC(=O)[C@@H]1CNCC[C@@H]1NS(=O)(=O)c1ccc(NC(=O)c2ccccc2C)c2ccccc12 (racemic) [Compound C-77, (±)-(cis)-4-[4-(2-Methyl-benzoylamino)-naphthalene-1-sulfonylamino]-piperidine-3-carboxylic acid ethyl ester] | < 30000 nM
CCCC(=O)N1CCC(NS(=O)(=O)c2ccc(NC(=O)c3c(F)cccc3C(F)(F)F)c3ccccc23)CC1 [Compound C-110, N-[4-(1-Butyryl-piperidin-4-ylsulfamoyl)-naphthalen-1-yl]-2-fluoro-6-trifluoromethyl-benzamide] | < 500 nM
CCOC(=O)N1CC[C@H](NS(=O)(=O)c2ccc(NC(=O)c3ccccc3C)c3ccccc23)[C@@H](C)C1 (racemic) [Compound C-17, (±)-trans-3-Methyl-4-[4-(2-methyl-benzoylamino)-naphthalene-1-sulfonylaminno]-piperidine-1-carboxylic acid ethyl ester] | < 500 nM
CCCC(=O)N1CCC(C)(NS(=O)(=O)c2ccc(NC(=O)c3ccccc3C)c3ccccc23)CC1 [Compound C-27, N-[4-(1-Butyryl-4-methyl-piperidin-4-ylsulfamoyl)-naphthalen-1-yl]-2-methyl-benzamide] | < 500 nM
CC(C)NC(=O)N1CCC(NS(=O)(=O)c2ccc(NC(=O)c3ccccc3)c3ccccc23)CC1 [Compound C-2, 4-(4-Benzoylamino-naphthalene-1-sulfonylamino)-piperidine-1-carboxylic acid isopropyl amide] | < 500 nM

Next, values leading:

Ki | SMILES
< 500 nM | CCOC(=O)N1CCC(NS(=O)(=O)c2ccc(CNCCc3ccccc3)c3ccccc23)CC1 [Compound G-24, 4-[4-(Phenethylamino-methyl)-naphthalene-1-sulfonylamino]-piperidine-1-carboxylic acid ethyl ester]
< 500 nM | Cc1ccccc1C(=O)Nc1ccc(S(=O)(=O)NC2[C@@H](C)CNC[C@@H]2C)c2ccccc12 [Compound J-46]
< 500 nM | CCOC(=O)N1CCC(NS(=O)(=O)c2ccc(CNCC3CCCCC3)c3ccccc23)CC1 [Compound G-27, 4-{4-[(Cyclohexylmethyl-amino)-methyl]-naphthalene-1-sulfonylamino}-piperidine-1-carboxylic acid ethyl ester]
< 500 nM | CCCC(=O)N1CCC(NS(=O)(=O)c2cccc3c(C(=O)Nc4cccc(C)c4C)cccc23)CC1 [Compound H-37, 5-(1-Butyryl-piperidin-4-ylsulfamoyl)-naphthalene-1-carboxylic acid (2,3-dimethyl-phenyl)-amide]
< 30000 nM | CCCC(=O)N1CCC(NS(=O)(=O)c2cc3c(c(NC(=O)c4ccccc4Cl)c2)CCCC3)CC1 [Compound H-63, N-[3-(1-Butyryl-piperidin-4-ylsulfamoyl)-5,6,7,8-tetrahydro-naphthalen-1-yl]-2-chloro-benzamide]
< 500 nM | COc1ccc(NS(=O)(=O)c2ccc3cccc(NC(=O)c4ccccc4)c3c2)cc1 [Compound H-47, N-[7-(4-Methoxy-phenylsulfamoyl)-naphthalen-1-yl]-benzamide]
< 500 nM | Cc1ccccc1C(=O)Nc1ccc(S(=O)(=O)N[C@H]2CCN(C(=O)C3(N)CC3)C[C@H]2C)c2ccccc12 [Compound J-9, (3R, 4S)-N-{4-[1-(1-Amino-cyclopropanecarbonyl)-3-methyl-piperidin-4-ylsuffamoyl]-naphthalen-1-yl}-2-methyl-benzamide]
< 500 nM | CC[C@@H]1CN(C(=O)[C@H](C)N)CC[C@H]1NS(=O)(=O)c1ccc(NC(=O)c2ccccc2C)c2ccccc12 [Compound J-32, (3R, 4R)-N-{4-[1-(2-(S)-Amino-propionyl)-3-ethyl-piperidin-4-ylsulfamoyl]-naphthalen-1-yl}-2-methyl-benzamide]
